In the supplement of paper PMC5908809:

What was measured:
[1] = test system: normal NK cells expanded with K562-aAPC; assay: percent inhibition of viability; higher = more inhibition; conditions: 72 h, IL-2 2.5 ng/mL
Description: (§1)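 Drug sensitivity and resistance testing on K562-aAPC-expanded normal NK cells: 5 concentrations (10-fold steps over a 10,000-fold range), 72 h at 37 °C, viability by CellTiter-Glo normalised to DMSO and benzethonium chloride controls; DSS from the fitted curve.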

[2] = test system: DERL-7 (IL-2 2.5 ng/mL); assay: as above; conditions: 72 h
[3] = test system: IMC-1 (IL-2 20 ng/mL); assay: as above; conditions: 72 h
[4] = test system: KAI3 (IL-2 2.5 ng/mL); assay: as above; conditions: 72 h
[5] = test system: KHYG-1 (IL-2 2.5 ng/mL); assay: as above; conditions: 72 h
[6] = test system: NK-92 (IL-2 2.5 ng/mL); assay: as above; conditions: 72 h
[7] = test system: NK-YS (IL-2 2.5 ng/mL); assay: as above; conditions: 72 h
[8] = test system: NKL (IL-2 2.5 ng/mL); assay: as above; conditions: 72 h
[9] = test system: SNK-6 (IL-2 2.5 ng/mL); assay: as above; conditions: 72 h
[10] = test system: YT (IL-2 2.5 ng/mL); assay: as above; conditions: 72 h
[11] = test system: normal primary NK cells, pool 1 (3 donors) (IL-2 2.5 ng/mL); assay: as above; conditions: 72 h
[12] = test system: normal primary NK cells, pool 1 (3 donors), resting (IL-2 0 ng/mL); assay: as above; conditions: 72 h
[13] = test system: normal primary NK cells, pool 2 (3 donors) (IL-2 2.5 ng/mL); assay: as above; conditions: 72 h
[14] = test system: normal primary NK cells, pool 3 (3 donors) (IL-2 2.5 ng/mL); assay: as above; conditions: 72 h
[15] = test system: normal NK cells expanded with K562-aAPC; assay: drug sensitivity score (DSS) (DSS units); higher = more sensitive; extreme values may be limits of the assay; conditions: 72 h; IL-2 2.5 ng/mL
Description: as §1

[16] = test system: DERL-7 (IL-2 2.5 ng/mL); assay: as above; conditions: 72 h
[17] = test system: IMC-1 (IL-2 20 ng/mL); assay: as above; conditions: 72 h
[18] = test system: KAI3 (IL-2 2.5 ng/mL); assay: as above; conditions: 72 h
[19] = test system: KHYG-1 (IL-2 2.5 ng/mL); assay: as above; conditions: 72 h
[20] = test system: NK-92 (IL-2 2.5 ng/mL); assay: as above; conditions: 72 h
[21] = test system: NK-YS (IL-2 2.5 ng/mL); assay: as above; conditions: 72 h
[22] = test system: NKL (IL-2 2.5 ng/mL); assay: as above; conditions: 72 h
[23] = test system: SNK-6 (IL-2 2.5 ng/mL); assay: as above; conditions: 72 h
[24] = test system: YT (IL-2 2.5 ng/mL); assay: as above; conditions: 72 h
[25] = test system: normal primary NK cells, pool 1 (3 donors) (IL-2 2.5 ng/mL); assay: as above; conditions: 72 h
[26] = test system: normal primary NK cells, pool 1 (3 donors), resting (IL-2 0 ng/mL); assay: as above; conditions: 72 h
[27] = test system: normal primary NK cells, pool 2 (3 donors) (IL-2 2.5 ng/mL); assay: as above; conditions: 72 h
[28] = test system: normal primary NK cells, pool 3 (3 donors) (IL-2 2.5 ng/mL); assay: as above; conditions: 72 h

Cn1cncc1[C@@](N)(c1ccc(Cl)cc1)c1ccc2c(c1)c(-c1cccc(Cl)c1)cc(=O)n2C [Tipifarnib] (max concentration tested 10000 nM)
percent inhibition of viability [%]
Conditions	1 nM	10 nM	100 nM	1000 nM	10000 nM
[1]	-0.6	11.6	28.5	39.2	75.8
[2]	1.19	15	50.5	55.8	82.4
[3]	-0.42	7.67	12.7	14.3	84.9
[4]	6.75	19.1	47.3	58.3	85.1
[5]	-2.81	24	75.8	83	107
[6]	-0.73	9.6	37.6	61.4	109
[7]	-3.65	20.6	59.3	66.9	90
[8]	-4.94	-3.92	26.4	59.5	92.4
[9]	-6.05	-1.97	53.1	67.8	79
[10]	3.74	11.7	34.3	55.4	106
[11]	5.62	11.4	32.4	24	96.1
[12]	-0.67	17.8	34.2	56.4	93
[13]	-6.39	6.93	13.5	23.8	83.5
[14]	-5.22	13.6	17.7	17.1	53.4

Conditions	drug sensitivity score
[15]	11.9
[16]	18.6
[17]	7.09
[18]	19.1
[19]	28.6
[20]	17.5
[21]	22.5
[22]	14.4
[23]	20.7
[24]	16.2
[25]	10.5
[26]	16.3
[27]	7.58
[28]	6.12

C[C@@H](Oc1ccc2[nH]nc(/C=C/c3cnn(CCO)c3)c2c1)c1c(Cl)cncc1Cl (max concentration tested 1000 nM)
percent inhibition of viability [%]
Conditions	0.1 nM	1 nM	10 nM	100 nM	1000 nM
[1]	-0.71	-1.93	22.3	94.3	97.8
[2]	-4.25	-1.44	12.1	50	100
[3]	2.17	-5.43	-8.61	21.8	98.1
[4]	2.24	4.1	25	79.6	90.2
[5]	-1.37	-1.77	23.3	101	98.7
[6]	-7.71	-11	4.63	65.8	84.5
[7]	-6.71	-5.42	10.9	60.3	93
[8]	-5.85	0.25	37.2	79.9	84.6
[9]	-12	0.34	23.3	95	92.3
[10]	-2.34	-5.3	-2.2	9.63	85.6
[11]	-3.85	-11	2.43	60.1	72.1
[12]	-1.49	-11.6	-11.3	13.6	13.4
[13]	-12.2	-5.79	27.6	62.9	71.7
[14]	-11.8	-16.6	7.47	63.4	69.5

Conditions	drug sensitivity score
[15]	20.3
[16]	11.6
[17]	8.86
[18]	17.6
[19]	21.6
[20]	12.9
[21]	12.9
[22]	19.4
[23]	20.8
[24]	6.34
[25]	11.4
[26]	0.82
[27]	15.3
[28]	12.7
